From ChEMBL document CHEMBL4507283, “Data for DCP probe BI-1935” (2021)

Columns and labels:
[1] = molecular target: Serotonin 1 (5-HT1) receptor (Rattus norvegicus) (UniProt P28564+P30940+P19327+P28565); experiment: 5HT1/R Eurofins-Panlabs selectivity data (BI); format: protein assay; conditions: Compound concentration 10.0 uM
[2] = molecular target: Serotonin 2 (5-HT2) receptor (Rattus norvegicus) (UniProt P30994+P08909+P14842); experiment: 5HT2/R Eurofins-Panlabs selectivity data (BI); format: protein assay; conditions: Compound concentration 10.0 uM
[3] = molecular target: Carbonic anhydrase 6 (Homo sapiens) (UniProt P23280); experiment: CANHYDRASE Eurofins-Panlabs selectivity data (BI); conditions: Compound concentration 10.0 uM
[4] = molecular target: D(2) dopamine receptor (Homo sapiens) (UniProt P14416); experiment: D2L/H Eurofins-Panlabs selectivity data (BI); conditions: Compound concentration 10.0 uM
[5] = molecular target: 3-hydroxy-3-methylglutaryl-coenzyme A reductase (Rattus norvegicus) (UniProt P51639); experiment: HMGCOARED Eurofins-Panlabs selectivity data (BI); conditions: Compound concentration 10.0 uM
[6] = molecular target: Leukotriene A-4 hydrolase (Cavia porcellus) (UniProt P19602); experiment: LTA4HYD Eurofins-Panlabs selectivity data (BI); conditions: Compound concentration 10.0 uM
[7] = system: Tyrosine-protein kinase ABL1 (Homo sapiens), P00519 [F317I]; conditions: Compound concentration 1000.0 nM
[8] = system: Tyrosine-protein kinase ABL1 (Homo sapiens), P00519 [T315I]; conditions: Compound concentration 1000.0 nM
[9] = molecular target: Activin receptor type-1-like (Homo sapiens) (UniProt P37023); conditions: Compound concentration 1000.0 nM
[10] = molecular target: Atypical kinase COQ8A, mitochondrial (Homo sapiens) (UniProt Q8NI60); conditions: Compound concentration 1000.0 nM
[11] = system: ALK tyrosine kinase receptor (Homo sapiens), Q9UM73 [C1156Y]; conditions: Compound concentration 1000.0 nM
[12] = system: ALK tyrosine kinase receptor (Homo sapiens), Q9UM73 [L1196M]; conditions: Compound concentration 1000.0 nM
[13] = molecular target: Tyrosine-protein kinase BTK (Homo sapiens) (UniProt Q06187); conditions: Compound concentration 1000.0 nM
[14] = molecular target: Calcium/calmodulin-dependent protein kinase type 1 (Homo sapiens) (UniProt Q14012); conditions: Compound concentration 1000.0 nM
[15] = molecular target: Cyclin-dependent kinase 13 (Homo sapiens) (UniProt Q14004); conditions: Compound concentration 1000.0 nM
[16] = molecular target: Cyclin-dependent kinase-like 3 (Homo sapiens) (UniProt Q8IVW4); conditions: Compound concentration 1000.0 nM
[17] = molecular target: Dual specificity protein kinase CLK4 (Homo sapiens) (UniProt Q9HAZ1); conditions: Compound concentration 1000.0 nM
[18] = molecular target: Casein kinase I isoform alpha-like (Homo sapiens) (UniProt Q8N752); conditions: Compound concentration 1000.0 nM
[19] = system: Epidermal growth factor receptor (Homo sapiens), P00533 [UNDEFINED MUTATION]; conditions: Compound concentration 1000.0 nM
[20] = system: Epidermal growth factor receptor (Homo sapiens), P00533 [T790M]; conditions: Compound concentration 1000.0 nM
[21] = molecular target: Rhodopsin kinase GRK1 (Homo sapiens) (UniProt Q15835); conditions: Compound concentration 1000.0 nM
[22] = molecular target: Serine/threonine-protein kinase haspin (Homo sapiens) (UniProt Q8TF76); conditions: Compound concentration 1000.0 nM
[23] = molecular target: Hormonally up-regulated neu tumor-associated kinase (Homo sapiens) (UniProt P57058); conditions: Compound concentration 1000.0 nM
[24] = molecular target: Tyrosine-protein kinase JAK1 (Homo sapiens) (UniProt P23458); conditions: Compound concentration 1000.0 nM
[25] = system: Mast/stem cell growth factor receptor Kit (Homo sapiens), P10721 [V559D,T670I]; conditions: Compound concentration 1000.0 nM
[26] = molecular target: MAP kinase-activated protein kinase 5 (Homo sapiens) (UniProt Q8IW41); conditions: Compound concentration 1000.0 nM
[27] = molecular target: Dual specificity mitogen-activated protein kinase kinase 1 (Homo sapiens) (UniProt Q02750); conditions: Compound concentration 1000.0 nM
[28] = system: Phosphatidylinositol 4,5-bisphosphate 3-kinase catalytic subunit alpha isoform (Homo sapiens), P42336 [Q546K]; conditions: Compound concentration 1000.0 nM
[29] = molecular target: Phosphatidylinositol 4,5-bisphosphate 3-kinase catalytic subunit gamma isoform (Homo sapiens) (UniProt P48736); conditions: Compound concentration 1000.0 nM
[30] = molecular target: Serine/threonine-protein kinase pim-2 (Homo sapiens) (UniProt Q9P1W9); conditions: Compound concentration 1000.0 nM
[31] = molecular target: cAMP-dependent protein kinase catalytic subunit beta (Homo sapiens) (UniProt P22694); conditions: Compound concentration 1000.0 nM
[32] = molecular target: Protein kinase C iota type (Homo sapiens) (UniProt P41743); conditions: Compound concentration 1000.0 nM
[33] = molecular target: Serine/threonine-protein kinase D1 (Homo sapiens) (UniProt Q15139); conditions: Compound concentration 1000.0 nM
[34] = molecular target: Interferon-induced, double-stranded RNA-activated protein kinase (Homo sapiens) (UniProt P19525); conditions: Compound concentration 1000.0 nM
[35] = molecular target: Ribosomal protein S6 kinase alpha-3 (Homo sapiens) (UniProt P51812); conditions: Compound concentration 1000.0 nM
[36] = molecular target: Serine/threonine-protein kinase SIK2 (Homo sapiens) (UniProt Q9H0K1); conditions: Compound concentration 1000.0 nM
[37] = molecular target: Serine/threonine-protein kinase TAO2 (Homo sapiens) (UniProt Q9UL54); conditions: Compound concentration 1000.0 nM
[38] = molecular target: Serine/threonine-protein kinase ULK3 (Homo sapiens) (UniProt Q6PHR2); conditions: Compound concentration 1000.0 nM
[39] = molecular target: Serine/threonine-protein kinase WNK2 (Homo sapiens) (UniProt Q9Y3S1); conditions: Compound concentration 1000.0 nM
[40] = molecular target: 5-hydroxytryptamine receptor 7 (Homo sapiens) (UniProt P34969); conditions: Compound concentration 10.0 uM
[41] = molecular target: Mu-type opioid receptor (Homo sapiens) (UniProt P35372); conditions: Compound concentration 10.0 uM
[42] = molecular target: Muscarinic acetylcholine receptor M3 (Homo sapiens) (UniProt P20309); conditions: Compound concentration 10.0 uM
[43] = molecular target: Sigma intracellular receptor 2 (Homo sapiens) (UniProt Q5BJF2); conditions: Compound concentration 10.0 uM
[44] = molecular target: Sigma non-opioid intracellular receptor 1 (Homo sapiens, UniProt Q99720); conditions: Compound concentration 10.0 uM

Muscarinic acetylcholine receptor M3 (Homo sapiens), sequence (P20309 whole entry, looked up): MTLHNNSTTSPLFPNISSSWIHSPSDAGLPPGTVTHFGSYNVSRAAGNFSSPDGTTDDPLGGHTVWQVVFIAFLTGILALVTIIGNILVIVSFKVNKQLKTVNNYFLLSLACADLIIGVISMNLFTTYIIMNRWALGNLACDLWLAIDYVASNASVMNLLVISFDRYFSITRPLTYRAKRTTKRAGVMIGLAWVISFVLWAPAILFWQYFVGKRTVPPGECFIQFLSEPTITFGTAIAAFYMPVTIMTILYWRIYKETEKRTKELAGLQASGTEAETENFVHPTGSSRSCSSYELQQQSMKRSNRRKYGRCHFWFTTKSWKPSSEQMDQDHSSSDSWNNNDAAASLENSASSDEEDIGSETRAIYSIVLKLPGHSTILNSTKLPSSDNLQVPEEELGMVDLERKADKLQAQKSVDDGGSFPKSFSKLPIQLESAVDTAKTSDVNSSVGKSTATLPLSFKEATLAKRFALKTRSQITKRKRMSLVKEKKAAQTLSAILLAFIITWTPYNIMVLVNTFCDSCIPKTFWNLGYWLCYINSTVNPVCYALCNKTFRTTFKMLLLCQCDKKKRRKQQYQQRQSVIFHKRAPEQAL
Carbonic anhydrase 6 (Homo sapiens), sequence (P23280 whole entry): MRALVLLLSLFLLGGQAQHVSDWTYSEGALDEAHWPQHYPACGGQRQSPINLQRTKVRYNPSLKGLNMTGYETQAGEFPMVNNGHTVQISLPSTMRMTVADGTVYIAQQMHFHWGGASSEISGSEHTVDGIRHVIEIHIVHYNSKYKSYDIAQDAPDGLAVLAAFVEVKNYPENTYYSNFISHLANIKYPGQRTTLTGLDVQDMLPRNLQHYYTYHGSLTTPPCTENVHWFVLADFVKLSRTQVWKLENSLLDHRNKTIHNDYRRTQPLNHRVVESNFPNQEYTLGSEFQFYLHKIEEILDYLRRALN
Tyrosine-protein kinase BTK (Homo sapiens), sequence (Q06187 whole entry): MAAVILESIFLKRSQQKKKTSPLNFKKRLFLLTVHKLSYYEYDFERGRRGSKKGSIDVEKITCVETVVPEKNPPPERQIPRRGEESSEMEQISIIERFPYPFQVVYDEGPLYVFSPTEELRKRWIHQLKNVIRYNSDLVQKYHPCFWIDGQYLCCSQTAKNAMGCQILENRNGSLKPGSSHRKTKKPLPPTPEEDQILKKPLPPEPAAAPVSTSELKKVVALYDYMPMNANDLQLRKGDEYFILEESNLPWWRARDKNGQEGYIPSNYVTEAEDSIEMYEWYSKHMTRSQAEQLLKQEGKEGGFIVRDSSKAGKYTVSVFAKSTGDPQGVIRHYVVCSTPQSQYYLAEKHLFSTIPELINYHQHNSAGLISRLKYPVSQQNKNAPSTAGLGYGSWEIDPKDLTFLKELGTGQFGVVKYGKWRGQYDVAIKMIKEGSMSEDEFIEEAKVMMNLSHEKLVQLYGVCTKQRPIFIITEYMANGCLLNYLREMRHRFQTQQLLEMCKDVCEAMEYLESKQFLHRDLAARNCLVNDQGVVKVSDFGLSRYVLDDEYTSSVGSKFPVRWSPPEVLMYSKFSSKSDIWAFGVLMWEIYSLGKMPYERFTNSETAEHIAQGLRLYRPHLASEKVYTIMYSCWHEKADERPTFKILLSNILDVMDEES
Serotonin 2 (5-HT2) receptor (Rattus norvegicus), sequence (P08909 whole entry, looked up): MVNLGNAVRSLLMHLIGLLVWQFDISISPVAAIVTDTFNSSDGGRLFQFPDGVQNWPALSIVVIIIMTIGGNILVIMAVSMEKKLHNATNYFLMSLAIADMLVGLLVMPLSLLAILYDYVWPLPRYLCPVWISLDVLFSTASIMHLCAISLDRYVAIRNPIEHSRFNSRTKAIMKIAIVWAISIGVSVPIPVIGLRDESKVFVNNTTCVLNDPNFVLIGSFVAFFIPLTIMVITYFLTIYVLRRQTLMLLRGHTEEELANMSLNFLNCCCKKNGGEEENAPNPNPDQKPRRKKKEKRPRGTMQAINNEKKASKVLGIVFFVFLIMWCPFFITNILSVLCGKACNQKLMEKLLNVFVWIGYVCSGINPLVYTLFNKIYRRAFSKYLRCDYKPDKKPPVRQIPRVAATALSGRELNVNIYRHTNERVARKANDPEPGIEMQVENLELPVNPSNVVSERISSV
Serotonin 2 (5-HT2) receptor (Rattus norvegicus), sequence (P14842 whole entry, looked up): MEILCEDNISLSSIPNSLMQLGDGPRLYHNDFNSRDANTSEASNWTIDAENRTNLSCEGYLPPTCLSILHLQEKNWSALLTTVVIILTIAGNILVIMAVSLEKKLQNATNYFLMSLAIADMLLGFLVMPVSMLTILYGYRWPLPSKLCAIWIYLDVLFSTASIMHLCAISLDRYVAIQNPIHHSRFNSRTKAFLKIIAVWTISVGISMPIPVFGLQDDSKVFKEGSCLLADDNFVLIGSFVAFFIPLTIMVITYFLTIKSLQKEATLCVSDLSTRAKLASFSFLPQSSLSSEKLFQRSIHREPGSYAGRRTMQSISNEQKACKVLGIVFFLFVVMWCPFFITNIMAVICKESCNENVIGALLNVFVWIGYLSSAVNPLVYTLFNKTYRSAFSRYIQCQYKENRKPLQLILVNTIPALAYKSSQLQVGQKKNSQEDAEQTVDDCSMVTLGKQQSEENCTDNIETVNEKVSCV
Serotonin 2 (5-HT2) receptor (Rattus norvegicus), sequence (P30994 whole entry, looked up): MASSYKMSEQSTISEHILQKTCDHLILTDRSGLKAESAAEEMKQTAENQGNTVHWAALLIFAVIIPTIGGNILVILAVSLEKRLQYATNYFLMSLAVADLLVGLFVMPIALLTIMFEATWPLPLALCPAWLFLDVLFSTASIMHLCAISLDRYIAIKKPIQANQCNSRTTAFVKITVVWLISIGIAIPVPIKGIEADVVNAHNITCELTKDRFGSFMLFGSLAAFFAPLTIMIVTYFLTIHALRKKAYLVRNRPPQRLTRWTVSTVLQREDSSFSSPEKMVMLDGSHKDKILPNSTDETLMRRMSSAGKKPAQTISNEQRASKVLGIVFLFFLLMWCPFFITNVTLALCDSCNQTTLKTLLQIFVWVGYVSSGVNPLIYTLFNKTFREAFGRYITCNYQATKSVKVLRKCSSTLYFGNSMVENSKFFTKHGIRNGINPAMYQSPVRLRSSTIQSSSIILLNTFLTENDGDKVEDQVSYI
3-hydroxy-3-methylglutaryl-coenzyme A reductase (Rattus norvegicus), sequence (P51639 whole entry): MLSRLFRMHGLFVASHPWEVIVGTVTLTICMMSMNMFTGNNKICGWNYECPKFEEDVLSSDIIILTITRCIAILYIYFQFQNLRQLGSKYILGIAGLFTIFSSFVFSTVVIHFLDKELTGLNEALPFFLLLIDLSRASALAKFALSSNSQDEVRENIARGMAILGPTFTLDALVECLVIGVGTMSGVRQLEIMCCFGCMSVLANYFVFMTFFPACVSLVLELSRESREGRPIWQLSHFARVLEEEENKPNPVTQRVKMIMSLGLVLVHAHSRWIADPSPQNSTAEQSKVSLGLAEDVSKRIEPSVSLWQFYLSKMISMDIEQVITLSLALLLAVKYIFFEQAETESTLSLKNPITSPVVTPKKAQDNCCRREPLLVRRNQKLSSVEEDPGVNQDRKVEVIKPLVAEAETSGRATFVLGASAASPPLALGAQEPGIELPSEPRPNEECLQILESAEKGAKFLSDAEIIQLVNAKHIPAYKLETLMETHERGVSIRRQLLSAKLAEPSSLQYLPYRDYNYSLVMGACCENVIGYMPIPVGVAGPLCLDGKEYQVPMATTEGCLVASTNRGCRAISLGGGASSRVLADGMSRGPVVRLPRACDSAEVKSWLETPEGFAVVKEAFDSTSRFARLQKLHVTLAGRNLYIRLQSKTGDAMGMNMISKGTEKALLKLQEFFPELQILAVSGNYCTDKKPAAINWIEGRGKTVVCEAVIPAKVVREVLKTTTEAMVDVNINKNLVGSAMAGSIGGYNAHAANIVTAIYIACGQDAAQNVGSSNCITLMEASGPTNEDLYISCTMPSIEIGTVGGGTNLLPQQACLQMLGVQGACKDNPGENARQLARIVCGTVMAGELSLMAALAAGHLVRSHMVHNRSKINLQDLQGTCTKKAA
Phosphatidylinositol 4,5-bisphosphate 3-kinase catalytic subunit gamma isoform (Homo sapiens), sequence (P48736 whole entry, looked up, canonical isoform): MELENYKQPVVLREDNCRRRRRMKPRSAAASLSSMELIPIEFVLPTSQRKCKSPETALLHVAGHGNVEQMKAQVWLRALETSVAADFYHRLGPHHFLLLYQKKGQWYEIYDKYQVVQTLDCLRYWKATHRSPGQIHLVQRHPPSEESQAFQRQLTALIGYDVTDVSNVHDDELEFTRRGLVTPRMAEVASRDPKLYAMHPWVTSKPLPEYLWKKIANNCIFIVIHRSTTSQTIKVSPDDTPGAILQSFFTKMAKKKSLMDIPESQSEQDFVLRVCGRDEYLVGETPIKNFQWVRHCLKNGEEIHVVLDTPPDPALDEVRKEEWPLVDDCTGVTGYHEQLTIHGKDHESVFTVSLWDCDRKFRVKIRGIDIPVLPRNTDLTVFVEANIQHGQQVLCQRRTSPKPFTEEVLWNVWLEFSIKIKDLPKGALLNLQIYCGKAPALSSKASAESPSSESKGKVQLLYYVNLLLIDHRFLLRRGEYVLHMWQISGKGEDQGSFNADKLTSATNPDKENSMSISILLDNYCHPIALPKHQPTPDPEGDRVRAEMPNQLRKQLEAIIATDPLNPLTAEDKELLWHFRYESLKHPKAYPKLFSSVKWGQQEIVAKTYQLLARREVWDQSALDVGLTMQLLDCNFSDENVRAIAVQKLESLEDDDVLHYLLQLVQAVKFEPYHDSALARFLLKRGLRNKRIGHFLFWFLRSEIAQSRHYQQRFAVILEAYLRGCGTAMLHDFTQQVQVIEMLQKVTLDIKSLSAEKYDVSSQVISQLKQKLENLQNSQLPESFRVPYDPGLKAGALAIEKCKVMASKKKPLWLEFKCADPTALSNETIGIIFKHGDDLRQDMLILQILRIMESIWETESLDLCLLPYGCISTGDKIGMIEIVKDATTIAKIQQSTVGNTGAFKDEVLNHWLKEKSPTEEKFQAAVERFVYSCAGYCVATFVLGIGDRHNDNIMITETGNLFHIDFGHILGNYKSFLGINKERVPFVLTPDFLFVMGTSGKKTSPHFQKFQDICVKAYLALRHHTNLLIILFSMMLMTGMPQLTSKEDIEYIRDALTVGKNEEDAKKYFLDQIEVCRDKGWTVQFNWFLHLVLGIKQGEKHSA

CCOCCn1cc(C(=O)Nc2ccc(-n3nc(-c4cccnc4)cc3C(F)(F)F)cn2)ccc1=O [BI 1935]
inactive: residual activity [1] 117% | residual activity [2] 87% | residual activity [3] 96% | residual activity [4] 97% | residual activity [5] 87% | residual activity [6] 111% | residual activity [7] 74% | residual activity [8] 96% | residual activity [9] 100% | residual activity [10] 90% | residual activity [11] 100% | residual activity [12] 73% | residual activity [13] 79% | residual activity [14] 100% | residual activity [15] 92% | residual activity [16] 84% | residual activity [17] 100% | residual activity [18] 100% | residual activity [19] 92% | residual activity [20] 100% | residual activity [21] 74% | residual activity [22] 100% | residual activity [23] 93% | residual activity [24] 100% | residual activity [25] 100% | residual activity [26] 87% | residual activity [27] 86% | residual activity [28] 95% | residual activity [29] 100% | residual activity [30] 100% | residual activity [31] 100% | residual activity [32] 73% | residual activity [33] 100% | residual activity [34] 100% | residual activity [35] 87% | residual activity [36] 91% | residual activity [37] 75% | residual activity [38] 61% | residual activity [39] 64% | inhibition [40] -4.21% | inhibition [41] 2.68% | inhibition [42] 10.2% | inhibition [43] -2.98% | inhibition [44] 50%
